One block for each compound: values may come before it.
System: 521955-158-R6-J3-PDC complex spheroid growth, % test/control
Experiment: Anticancer human tumor 521955-158-R6-J3-PDC patient-derived pancreatic carcinoma cell line growth inhibition [Asc]
Details: for IC50: curve of first compound; for viability, T/C: stronger effect = lower value
Procedure, shortened: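 Stromal components (HUVEC and hMSC) are co-assembled with the cancer cells into multicellular spheroids. Drugs are then added singly or paired, at concentrations falling by half-log increments from a clinically achievable maximum, capped at 10 microM without known Cmax.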

[1] = second compound 0.00949 µM, first compound 0.0316 µM
[2] = second compound 0.00949 µM, first compound 0.1 µM
[3] = second compound 0.00949 µM, first compound 0.316 µM
[4] = second compound 0.00949 µM, first compound 1 µM
[5] = second compound 0.00949 µM, first compound 3.16 µM
[6] = second compound 0.00949 µM, first compound 10 µM
[7] = second compound 0.03 µM, first compound 0.0316 µM
[8] = second compound 0.03 µM, first compound 0.1 µM
[9] = second compound 0.03 µM, first compound 0.316 µM
[10] = second compound 0.03 µM, first compound 1 µM
[11] = second compound 0.03 µM, first compound 3.16 µM
[12] = second compound 0.03 µM, first compound 10 µM
[13] = second compound 0.0949 µM, first compound 0.0316 µM
[14] = second compound 0.0949 µM, first compound 0.1 µM
[15] = second compound 0.0949 µM, first compound 0.316 µM
[16] = second compound 0.0949 µM, first compound 1 µM
[17] = second compound 0.0949 µM, first compound 3.16 µM
[18] = second compound 0.0949 µM, first compound 10 µM
[19] = second compound 0.3 µM, first compound 0.0316 µM
[20] = second compound 0.3 µM, first compound 0.1 µM
[21] = second compound 0.3 µM, first compound 0.316 µM
[22] = second compound 0.3 µM, first compound 1 µM
[23] = second compound 0.3 µM, first compound 3.16 µM
[24] = second compound 0.3 µM, first compound 10 µM
[25] = second compound 0.949 µM, first compound 0.0316 µM
[26] = second compound 0.949 µM, first compound 0.1 µM
[27] = second compound 0.949 µM, first compound 0.316 µM
[28] = second compound 0.949 µM, first compound 1 µM
[29] = second compound 0.949 µM, first compound 3.16 µM
[30] = second compound 0.949 µM, first compound 10 µM
[31] = second compound 3 µM, first compound 0.0316 µM
[32] = second compound 3 µM, first compound 0.1 µM
[33] = second compound 3 µM, first compound 0.316 µM
[34] = second compound 3 µM, first compound 1 µM
[35] = second compound 3 µM, first compound 3.16 µM
[36] = second compound 3 µM, first compound 10 µM
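Also: spheroids exposed to compounds for 7 days.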
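For viability, T/C in this document: 100% = DMSO vehicle control wells.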

- IC50 (second compound 0.00949 µM): 0.518 µM
- IC50 (second compound 0.03 µM): 0.329 µM
- IC50 (second compound 0.0949 µM): 0.214 µM
- IC50 (second compound 0.3 µM): 0.223 µM
- IC50 (second compound 0.949 µM): 0.903 µM
- IC50 (second compound 3 µM): < 0.0316 µM
SMILES: C#Cc1c(F)ccc2cc(O)cc(-c3ncc4c(N5CC6CCC(C5)N6)nc(OCC56CCCN5CC(F)C6)nc4c3F)c12 (centres undefined) + CCN1C(C(=O)NC23CCC(C(=O)O)(CC2)CC3)C(c2cccc(Cl)c2F)C2(C(=O)Nc3cc(Cl)ccc32)C12CCCCC2
- viability, T/C [1]: 76.9%
- viability, T/C [2]: 60.5%
- viability, T/C [3]: 50.2%
- viability, T/C [4]: 49.1%
- viability, T/C [5]: 39.3%
- viability, T/C [6]: 28.2%
- viability, T/C [7]: 72.2%
- viability, T/C [8]: 58%
- viability, T/C [9]: 47.1%
- viability, T/C [10]: 45.4%
- viability, T/C [11]: 41.4%
- viability, T/C [12]: 31.7%
- viability, T/C [13]: 81.6%
- viability, T/C [14]: 55.8%
- viability, T/C [15]: 46.5%
- viability, T/C [16]: 40.2%
- viability, T/C [17]: 43.6%
- viability, T/C [18]: 30.3%
- viability, T/C [19]: 72.1%
- viability, T/C [20]: 65.9%
- viability, T/C [21]: 42.4%
- viability, T/C [22]: 40.4%
- viability, T/C [23]: 39.2%
- viability, T/C [24]: 29.3%
- viability, T/C [25]: 68.3%
- viability, T/C [26]: 66%
- viability, T/C [27]: 51%
- viability, T/C [28]: 53%
- viability, T/C [29]: 41.7%
- viability, T/C [30]: 34.2%
- viability, T/C [31]: 57.9%
- viability, T/C [32]: 48.4%
- viability, T/C [33]: 51%
- viability, T/C [34]: 41.3%
- viability, T/C [35]: 50.4%
- viability, T/C [36]: 25.7%

- IC50 (second compound 0.00949 µM): 4.82 µM
- IC50 (second compound 0.03 µM): 5.19 µM
- IC50 (second compound 0.0949 µM): 4.75 µM
- IC50 (second compound 0.3 µM): 5.35 µM
- IC50 (second compound 0.949 µM): 5.09 µM
- IC50 (second compound 3 µM): 5.58 µM
SMILES: C=C(F)C(=O)N1CCN(c2nc(OCC3CCCN3C)nc3c2CCN(c2cccc4cccc(Cl)c24)C3)CC1CC#N (centres undefined) + CCN1C(C(=O)NC23CCC(C(=O)O)(CC2)CC3)C(c2cccc(Cl)c2F)C2(C(=O)Nc3cc(Cl)ccc32)C12CCCCC2
- viability, T/C [1]: 107%
- viability, T/C [2]: 98.7%
- viability, T/C [3]: 102%
- viability, T/C [4]: 95.6%
- viability, T/C [5]: 79.4%
- viability, T/C [6]: 0.48%
- viability, T/C [7]: 117%
- viability, T/C [8]: 108%
- viability, T/C [9]: 111%
- viability, T/C [10]: 91.7%
- viability, T/C [11]: 90.2%
- viability, T/C [12]: 2.78%
- viability, T/C [13]: 113%
- viability, T/C [14]: 121%
- viability, T/C [15]: 108%
- viability, T/C [16]: 94%
- viability, T/C [17]: 81.8%
- viability, T/C [18]: 0.48%
- viability, T/C [19]: 109%
- viability, T/C [20]: 97.7%
- viability, T/C [21]: 96%
- viability, T/C [22]: 92.4%
- viability, T/C [23]: 91.6%
- viability, T/C [24]: 0.41%
- viability, T/C [25]: 103%
- viability, T/C [26]: 110%
- viability, T/C [27]: 103%
- viability, T/C [28]: 113%
- viability, T/C [29]: 84.9%
- viability, T/C [30]: 0.49%
- viability, T/C [31]: 94%
- viability, T/C [32]: 109%
- viability, T/C [33]: 102%
- viability, T/C [34]: 86.2%
- viability, T/C [35]: 101%
- viability, T/C [36]: 0.33%

Source: PubChem BioAssay AID1963451 (Molecular Pharmacology Branch, DTP, NCI, 2024)
